# Measured values reported in US11542259B2, “Compounds for the treatment of kinase-dependent disorders” (Exelixis, Inc., priority 2018, dated 2023).
# Experiments:
# [1] = target: Human Met (residues R974-S1390 with A1209G and V1290L) (Homo sapiens, UniProt P08581); test: Human Met kinase assay (33P radiometric, KinaseProfiler); format: biochemical; details: 10 μM ATP, read-out: c-Met IC50
# AXL = AXL (Homo sapiens (Human), UniProt P30530); test: AXL autophosphorylation ELISA in A-172 cells; format: cell-based; details: cellular, Gas6 stimulated
# Sequence of AXL (P30530 26-894): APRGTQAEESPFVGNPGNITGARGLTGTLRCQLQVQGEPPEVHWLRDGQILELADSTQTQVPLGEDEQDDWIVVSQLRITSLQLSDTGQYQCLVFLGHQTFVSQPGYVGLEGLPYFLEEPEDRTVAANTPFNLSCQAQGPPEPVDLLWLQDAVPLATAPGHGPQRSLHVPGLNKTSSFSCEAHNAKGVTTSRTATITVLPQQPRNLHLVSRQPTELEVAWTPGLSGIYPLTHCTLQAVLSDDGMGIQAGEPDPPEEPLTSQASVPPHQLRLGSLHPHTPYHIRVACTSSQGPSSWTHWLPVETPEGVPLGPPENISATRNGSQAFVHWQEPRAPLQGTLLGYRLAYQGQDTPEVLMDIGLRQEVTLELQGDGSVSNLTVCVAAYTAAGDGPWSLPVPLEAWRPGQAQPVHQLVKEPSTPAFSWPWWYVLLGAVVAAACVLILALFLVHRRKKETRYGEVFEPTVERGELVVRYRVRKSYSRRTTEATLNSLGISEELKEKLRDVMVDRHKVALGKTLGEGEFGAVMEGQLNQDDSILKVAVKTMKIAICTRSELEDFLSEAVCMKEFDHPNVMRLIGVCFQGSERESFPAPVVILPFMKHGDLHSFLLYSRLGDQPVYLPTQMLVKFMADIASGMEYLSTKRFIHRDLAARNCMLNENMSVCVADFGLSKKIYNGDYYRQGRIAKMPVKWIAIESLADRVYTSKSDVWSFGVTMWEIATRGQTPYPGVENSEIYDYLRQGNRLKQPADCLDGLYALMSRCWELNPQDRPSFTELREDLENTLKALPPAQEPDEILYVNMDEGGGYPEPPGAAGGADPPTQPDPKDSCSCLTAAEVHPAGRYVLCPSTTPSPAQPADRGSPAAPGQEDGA
# Outline: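 Serum-starved (24 h) A-172 glioblastoma cells pretreated 1 h with compounds (8-point curve, 0.3% DMSO), then stimulated 15 min with 1 μg/mL Gas6. Lysate phospho-AXL measured by sandwich ELISA against a phospho-AXL standard; IC50 from 4-parameter logistic fit between DMSO and reference-inhibitor controls.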
# Mer = Mer (Homo sapiens (Human), UniProt Q12866); test: Mer autophosphorylation ELISA in transient transfected 293A cells; format: cell-based; details: cellular, MERTK transfected 293A cells
# Sequence of Mer (Q12866 21-999): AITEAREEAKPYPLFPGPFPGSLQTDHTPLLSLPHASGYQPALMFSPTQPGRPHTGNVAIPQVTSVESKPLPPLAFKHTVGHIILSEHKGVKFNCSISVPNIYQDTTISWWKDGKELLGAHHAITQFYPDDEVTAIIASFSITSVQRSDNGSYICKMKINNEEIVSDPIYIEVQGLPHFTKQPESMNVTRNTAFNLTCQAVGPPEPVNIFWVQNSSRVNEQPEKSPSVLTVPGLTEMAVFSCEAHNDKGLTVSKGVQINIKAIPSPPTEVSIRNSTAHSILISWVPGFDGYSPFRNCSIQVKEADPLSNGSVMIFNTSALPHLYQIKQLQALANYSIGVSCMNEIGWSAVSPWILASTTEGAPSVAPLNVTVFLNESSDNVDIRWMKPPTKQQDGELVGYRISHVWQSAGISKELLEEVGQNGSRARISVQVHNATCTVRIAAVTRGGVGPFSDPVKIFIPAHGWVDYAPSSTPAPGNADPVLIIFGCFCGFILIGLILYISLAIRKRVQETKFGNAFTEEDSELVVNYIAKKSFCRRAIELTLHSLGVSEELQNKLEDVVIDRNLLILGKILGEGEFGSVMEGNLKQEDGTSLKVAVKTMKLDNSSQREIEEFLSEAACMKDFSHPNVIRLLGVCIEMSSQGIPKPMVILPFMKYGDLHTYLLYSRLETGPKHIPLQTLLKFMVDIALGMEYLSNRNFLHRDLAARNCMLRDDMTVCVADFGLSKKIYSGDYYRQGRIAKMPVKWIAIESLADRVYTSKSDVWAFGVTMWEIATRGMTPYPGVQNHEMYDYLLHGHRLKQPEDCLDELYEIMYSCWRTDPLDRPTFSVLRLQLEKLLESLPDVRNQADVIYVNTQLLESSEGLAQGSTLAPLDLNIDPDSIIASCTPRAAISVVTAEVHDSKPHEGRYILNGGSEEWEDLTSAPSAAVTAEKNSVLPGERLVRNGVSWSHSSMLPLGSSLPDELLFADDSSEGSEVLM
# Outline: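 293A cells transiently transfected with human MERTK DNA, then treated 1 h with 8-point compound dilutions in serum-free medium (0.3% DMSO). Phospho-Mer in lysates quantified by sandwich ELISA against phospho-Mer standard; normalised to DMSO (100%) and reference inhibitor (0%), IC50 from 4-parameter logistic fit.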
SMILES,IC50 [1] [nM],IC50 (AXL) [nM],IC50 (Mer) [nM]
"COc1cc2nccc(Oc3ccc(NC(=O)C4(C(=O)Nc5ccc(F)cc5)CC4)cc3Cl)c2cc1C(N)=O [Compound 132, 1-N′-[4-(6-carbamoyl-7-methoxyquinolin-4-yl)oxy-3-chlorophenyl]-1-N-(4-fluorophenyl)cyclopropane-1,1-dicarboxamide]",≤ 10,≤ 10,≤ 10
"NC(=O)c1ccc2c(Oc3ccc(NC(=O)C4(C(=O)Nc5ccc(F)cc5)CC4)cc3)ccnc2c1 [Compound 164, 1-N-[4-(7-carbamoylquinolin-4-yl)oxyphenyl]-1-N′-(4-fluorophenyl)cyclopropane-1,1-dicarboxamide]",≤ 10,≤ 10,10 to 100
"COc1cc2nccc(Oc3ccc(NC(=O)C4(C(=O)Nc5ccc(F)cc5)CC4)cc3)c2cc1-c1ncco1 [Compound 45, 1-N′-(4-fluorophenyl)-1-N-[4-[7-methoxy-6-(1,3-oxazol-2-yl)quinolin-4-yl]oxyphenyl]cyclopropane-1,1-dicarboxamide]",≤ 10,≤ 10,≤ 10
"CCNC(=O)c1cc2c(Oc3ccc(NC(=O)C4(C(=O)Nc5ccc(F)cc5)CC4)cc3)ccnc2cc1OC [Compound 9, 1-N-[4-[6-(ethylcarbamoyl)-7-methoxyquinolin-4-yl]oxyphenyl]-1-N′-(4-fluorophenyl)cyclopropane-1,1-dicarboxamide]",,≤ 10,≤ 10
"CNC(=O)c1ccc2c(Oc3ccc(NC(=O)C4(C(=O)Nc5ccc(F)cc5)CC4)cc3)ccnc2c1 [Compound 165, 1-N′-(4-fluorophenyl)-1-N-[4-[7-(methylcarbamoyl)quinolin-4-yl]oxyphenyl]cyclopropane-1,1-dicarboxamide]",≤ 10,10 to 100,10 to 100
"COc1cc2nccc(Oc3ccc(NC(=O)C4(C(=O)Nc5ccc(F)cc5)CC4)cc3)c2cc1S(N)(=O)=O [Compound 206, 1-N′-(4-Fluorophenyl)-1-N-[4-(7-methoxy-6-sulfamoylquinolin-4-yl)oxyphenyl]cyclopropane-1,1-dicarboxamide]",≤ 10,≤ 10,10 to 100
"CNC(=O)c1cc2c(Oc3ccc(NC(=O)C4(C(=O)Nc5ccc(F)cc5)CC4)cc3F)ccnc2cc1OC [Compound 135, 1-N′-[3-fluoro-4-[7-methoxy-6-(methylcarbamoyl)quinolin-4-yl]oxyphenyl]-1-N-(4-fluorophenyl)cyclopropane-1,1-dicarboxamide]",≤ 10,≤ 10,≤ 10
"NC(=O)c1cc2c(Oc3ccc(NC(=O)C4(C(=O)Nc5ccc(F)cc5)CC4)cc3)ccnc2cc1OCCCN1CCOCC1 [Compound 98, 1-N-[4-[6-carbamoyl-7-(3-morpholin-4-ylpropoxy)quinolin-4-yl]oxyphenyl]-1-N′-(4-fluorophenyl)cyclopropane-1,1-dicarboxamide]",≤ 10,≤ 10,10 to 100
"COc1cc2nccc(Oc3ccc(NC(=O)C4(C(=O)Nc5ccc(F)cc5)CC4)cc3)c2cc1C(N)=O [Compound 7, 1-N-[4-(6-carbamoyl-7-methoxyquinolin-4-yl)oxyphenyl]-1-N′-(4-fluorophenyl)cyclopropane-1,1-dicarboxamide]",≤ 10,≤ 10,≤ 10
"COc1cc2nccc(Oc3ccc(NC(=O)C4(C(=O)Nc5ccc(F)cc5)CC4)cc3F)c2cc1C(N)=O [Compound 133, 1-N′-[4-(6-carbamoyl-7-methoxyquinolin-4-yl)oxy-3-fluorophenyl]-1-N-(4-fluorophenyl)cyclopropane-1,1-dicarboxamide]",≤ 10,≤ 10,≤ 10
"COc1cc2nccc(Oc3ccc(NC(=O)C4(C(=O)Nc5ccc(F)cc5)CC4)cc3)c2cc1-c1nnco1 [Compound 220, 1-N′-(4-Fluorophenyl)-1-N-[4-[7-methoxy-6-(1,3,4-oxadiazol-2-yl)quinolin-4-yl]oxyphenyl]cyclopropane-1,1-dicarboxamide]",≤ 10,≤ 10,≤ 10
"COc1cc2nccc(Oc3ccc(NC(=O)C4(C(=O)Nc5ccc(F)cc5)CC4)cc3)c2cc1-c1ccn[nH]1 [Compound 185, 1-N′-(4-fluorophenyl)-1-N-[4-[7-methoxy-6-(1H-pyrazol-5-yl)quinolin-4-yl]oxyphenyl]cyclopropane-1,1-dicarboxamide]",≤ 10,10 to 100,≤ 10
"COc1cc2nccc(Oc3ccc(NC(=O)C4(C(=O)Nc5ccc(F)cc5)CC4)cc3)c2cc1-c1cnn(C)c1 [Compound 182, 1-N′-(4-fluorophenyl)-1-N-[4-[7-methoxy-6-(1-methylpyrazol-4-yl)quinolin-4-yl]oxyphenyl]cyclopropane-1,1-dicarboxamide]",≤ 10,≤ 10,≤ 10
"CONC(=O)c1cc2c(Oc3ccc(NC(=O)C4(C(=O)Nc5ccc(F)cc5)CC4)cc3)ccnc2cc1OC [Compound 17, 1-N′-(4-fluorophenyl)-1-N-[4-[7-methoxy-6-(methoxycarbamoyl)quinolin-4-yl]oxyphenyl]cyclopropane-1,1-dicarboxamide]",,10 to 100,10 to 100
"CNC(=O)c1cc2c(Oc3ccc(NC(=O)C4(C(=O)Nc5ccc(F)cc5)CC4)cc3)ccnc2cc1OC [Compound 8, 1-N′-(4-fluorophenyl)-1-N-[4-[7-methoxy-6-(methylcarbamoyl)quinolin-4-yl]oxyphenyl]cyclopropane-1,1-dicarboxamide]",≤ 10,≤ 10,≤ 10
"CNC(=O)c1cc2c(Oc3ccc(NC(=O)C4(C(=O)Nc5ccc(F)cc5)CC4)cc3Cl)ccnc2cc1OC [Compound 134, 1-N′-[3-chloro-4-[7-methoxy-6-(methylcarbamoyl)quinolin-4-yl]oxyphenyl]-1-N-(4-fluorophenyl)cyclopropane-1,1-dicarboxamide]",≤ 10,≤ 10,≤ 10
"Cc1cc2c(Oc3ccc(NC(=O)C4(C(=O)Nc5ccc(F)cc5)CC4)cc3)ccnc2cc1C(N)=O [Compound 142, 1-N-[4-(7-carbamoyl-6-methylquinolin-4-yl)oxyphenyl]-1-N′-(4-fluorophenyl)cyclopropane-1,1-dicarboxamide]",≤ 10,10 to 100,10 to 100
"COc1cc2nccc(Oc3ccc(NC(=O)C4(C(=O)Nc5ccc(F)cc5)CC4)cc3)c2cc1-c1ncc[nH]1 [Compound 191, 1-N′-(4-Fluorophenyl)-1-N-[4-[6-(1H-imidazol-2-yl)-7-methoxyquinolin-4-yl]oxyphenyl]cyclopropane-1,1-dicarboxamide]",,≤ 10,≤ 10
"CNC(=O)c1cc2nccc(Oc3ccc(NC(=O)C4(C(=O)Nc5ccc(F)cc5)CC4)cc3)c2cc1C [Compound 143, 1-N′-(4-fluorophenyl)-1-N-[4-[6-methyl-7-(methylcarbamoyl)quinolin-4-yl]oxyphenyl]cyclopropane-1,1-dicarboxamide]",≤ 10,10 to 100,
"COc1cc2nccc(Oc3ccc(NC(=O)C4(C(=O)Nc5ccc(F)cc5)CC4)cc3)c2cc1C(=O)N1CC(O)C1 [Compound 16, 1-N′-(4-fluorophenyl)-1-N-[4-[6-(3-hydroxyazetidine-1-carbonyl)-7-methoxyquinolin-4-yl]oxyphenyl]cyclopropane-1,1-dicarboxamide]",≤ 10,10 to 100,
